Broadly, the IC50 is the concentration at which inhibition is half-maximal. As a reminder, the EC50 is the concentration at which the effect is half-maximal.

Where two headings read alike, the source gives them in different places.

The values that follow come from PMC2593151 (Bioorganic & medicinal chemistry letters, 2008).

Test [1] concerns the target T1, LuxR (Aliivibrio fischeri, UniProt P35327). Nature of the test: LuxR antagonism reporter assay. It is filed as cell-based, Vibrio fischeri. (A reporter such as luciferase makes a cellular process visible.)
For test [2], the target named is T1, LuxR. Nature of the test: LuxR agonism reporter assay. It is filed as cell-based, Vibrio fischeri.
Test [3] addresses T2, LasR (Pseudomonas aeruginosa, UniProt P25084). Nature of the test: LasR agonism reporter gene assay, E. coli DH5α. It is filed as cell-based.
The target of test [4] is T3, TraR (Agrobacterium tumefaciens, UniProt P33905). Description: TraR antagonism reporter gene assay. The format is cell-based.
Test [5] deals with T3, TraR. The settings on record: shown previously; cited from earlier work.
In test [6] the target is T2, LasR. The settings on record: shown previously; cited from earlier work.
For test [7], the target named is T1, LuxR. The settings on record: shown previously; cited from earlier work.
Test [8] has as its target T1, LuxR. The settings on record: cited from earlier work.
Test [9] concerns the target T2, LasR. The settings on record: read-out: EC50 E. coli LasR; controls; compound alone; ref 5a; cited from earlier work.

T1 sequence (P35327 whole entry): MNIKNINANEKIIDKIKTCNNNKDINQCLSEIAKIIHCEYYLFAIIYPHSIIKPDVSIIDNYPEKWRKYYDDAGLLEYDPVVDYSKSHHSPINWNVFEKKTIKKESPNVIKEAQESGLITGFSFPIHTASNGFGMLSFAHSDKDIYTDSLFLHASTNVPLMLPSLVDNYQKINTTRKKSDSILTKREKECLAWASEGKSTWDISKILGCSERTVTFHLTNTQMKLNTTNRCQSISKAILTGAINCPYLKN
T2 sequence (P25084 whole entry): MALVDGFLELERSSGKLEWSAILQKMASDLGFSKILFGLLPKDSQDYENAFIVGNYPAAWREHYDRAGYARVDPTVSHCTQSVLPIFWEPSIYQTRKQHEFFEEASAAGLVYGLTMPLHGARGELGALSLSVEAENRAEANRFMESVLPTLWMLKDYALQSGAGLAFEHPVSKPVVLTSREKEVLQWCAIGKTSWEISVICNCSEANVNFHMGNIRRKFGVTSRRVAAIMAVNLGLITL
T3 sequence (P33905 whole entry): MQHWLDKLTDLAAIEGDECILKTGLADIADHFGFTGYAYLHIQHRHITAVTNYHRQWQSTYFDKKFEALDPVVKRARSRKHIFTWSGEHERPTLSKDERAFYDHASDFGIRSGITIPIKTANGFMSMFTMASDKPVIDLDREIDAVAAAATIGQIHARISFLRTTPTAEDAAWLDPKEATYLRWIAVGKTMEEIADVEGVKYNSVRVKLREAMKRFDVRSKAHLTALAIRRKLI

In turn, `O=C(CCc1cccc(I)c1)N[C@H]1CCOC1=O` [E33, 3-I PPHL] came in with an IC50 at LuxR [1] of approximately 470 nM.
On the same count and under the same terms, under `O=C(CCc1cccc(C(F)(F)F)c1)N[C@H]1CCOC1=O` [E36, 3-CF3 PPHL] stands approximately 470 nM.
The compound `N#Cc1cccc(CC(=O)N[C@H]2CCOC2=O)c1` [E5, 3-CN PHL] showed an EC50 at LuxR [2] of 300 nM.
The compound `O=C(Cc1cc(C(F)(F)F)cc(C(F)(F)F)c1)N[C@H]1CCOC1=O` [E9, 3,5-CF3 PHL] displayed an EC50 on LuxR [2] of 370 nM.
On LasR [3], `O=C(CCc1ccc(C(F)(F)F)cc1)N[C@H]1CCOC1=O` [E35, 4-CF3 PHHL] registered an EC50 of more than 10000 nM. For the same compound, the half-inhibitory concentration (IC50) on TraR [4] was approximately 250 nM.
Regarding `O=C(CCc1ccccc1)NC1CCOC1=O` (centres unmarked) [compound 7, non-substituted PPHL], the “TraR inhibition (in words)” value on TraR [5] is “minimal activity”. Further, on LasR [6], the “LasR inhibition (in words)” value was “minimal activity”. Also, on LuxR [7], the “LuxR inhibition (in words)” value is “minimal activity”.
`O=C(CCc1ccc(I)cc1)N[C@H]1CCOC1=O` [E32] displayed an EC50 on LasR [3] of more than 10000 nM.
The same measure, in the same setting: for `O=C(Cc1ccc(SC(F)(F)F)cc1)N[C@H]1CCOC1=O` [E8, 4-SCF3 PHL] the value was 3400 nM.
For the compound `O=C(COc1ccc([N+](=O)[O-])cc1)N[C@H]1CCOC1=O` [E24, 4-NO2 POHL], the IC50 on TraR [4] was approximately 250 nM.
For the compound `O=C(Cc1cccc([N+](=O)[O-])c1)N[C@H]1CCOC1=O` [compound 4, 3-NO2 PHL], the “LuxR activation threshold level” value on LuxR [8] (previously reported LuxR activator) was ~ 100%. On LuxR [8] (read-out: EC50 V. fischeri LuxR, controls, compound alone, ref 5a), the EC50 was 350 nM.
For the compound `O=C(COc1ccc(OC(F)(F)F)cc1)N[C@H]1CCOC1=O` [compound 6, 4-OCF3 POHL], the “TraR inhibition (in words)” value at TraR [5] was “strong”. Besides, on LasR [6], the “LasR inhibition (in words)” value was “moderate”. The EC50 at LasR [9] is 6300 nM.
Regarding `O=C(Cc1cccc(C(F)(F)F)c1)N[C@H]1CCOC1=O` [E3, 3-CF3 PHL], the “LuxR activation (in words)” value at LuxR [2] (Library E) is “failed to activate LuxR”.
At LasR [3], `O=C(CCc1ccc2c(c1)OCO2)N[C@H]1CCOC1=O` [E39] came in with an EC50 of more than 10000 nM.
Turning to `O=C(CCc1ccc(Br)cc1)N[C@H]1CCOC1=O` [compound 8, 4-bromo PPHL], the “TraR inhibition (in words)” value on TraR [5] is “potent inhibitor”. Further, the “LasR inhibition (in words)” value on LasR [6] is listed as “potent inhibitor”. Besides, the “LuxR inhibition (in words)” value on LuxR [7] was “potent inhibitor”.
Regarding `O=C(CCc1cccc(Br)c1)N[C@H]1CCOC1=O` [E31, 3-Br PPHL], the IC50 at LuxR [1] is approximately 470 nM.
